# Earlier results as cited in article PMC7414093 (Proceedings of the National Academy of Sciences of the …, 2020).
# Numbered stars: 1 amine (or outer) side, 2 acyl side, 3 side chain; on linkers, the order of the positions; unused ones are H or OH. Bridge positions count the residues as written; N and C are the ends. Square brackets hold non-standard residues; d marks the D form. Peptide text beside a SMILES is read from it. Phe(3,4-Cl2) = N[C@@H](Cc1ccc(Cl)c(Cl)c1)C(=O)O; X1 = NCCC(=O)N[C@@H](CN[*:2])C(=O)[*:1]; hhPhe = N[C@@H](CCCc1ccccc1)C(=O)O; NMeL = CN[C@@H](CC(C)C)C(=O)O; Orn = NCCC[C@H](N)C(=O)O
# System: HA
# Set-up: method as in PMID 28971971
# Conditions: AlphaLISA, HB80.4 as competitor for HA binding; cited from earlier work
compound,measurement,value
"CC(=O)N[C@@H](CCCc1ccccc1)C(=O)N[C@H]1CCCNC(=O)[C@@H](NC(=O)CCN)CNC(=O)[C@H](CO)NC(=O)[C@H](CC(C)C)NC(=O)[C@H](Cc2c[nH]c3ccccc23)NC(=O)[C@H](CCC(=O)O)NC(=O)[C@H](Cc2ccc(Cl)c(Cl)c2)NC(=O)[C@H](Cc2ccc(O)cc2)NC(=O)[C@H](CCC(=O)O)NC(=O)[C@H](CC(C)C)N(C)C1=O [P7] (Ac-[hhPhe][Orn][NMeL]EY[Phe(3,4-Cl2)]EWLS; linker 2-C via X1)",EC50,30 to 70 nM
